Measurements: patent US9833497B2, “Human originated EGF domain proteins and use of the same” (CHENGDU SOURCEBIO LIMITED-LIABILITY COMPANY, priority 2013, dated 2017)

Tests used:
Assay type in all cases: cell-based
E. coli DH5α = experiment: Antibacterial activity: MIC and growth curve against E. coli DH5α in 96-well plate; conditions: minimal inhibitory concentration against E. coli DH5α; 96-well plate, 5×10^5 CFU/mL, 37° C., judged after 8 h
How it was run: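 Log-phase DH5α (OD600 about 0.5, 37° C, 185 rpm in LB) was pelleted, resuspended in fresh LB and seeded at 5×10^5 CFU/mL with recombinant protein at 50, 25 and 12.5 μg/mL (two-fold series), in triplicate. Plates were shaken at 175 rpm, 37° C, and OD600 was read every 30 min. MIC was the lowest concentration with no growth.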

E. coli BL21 = experiment: MIC against Gram-negative bacteria: E. coli BL21; conditions: 96-well plate, 5×10^5 CFU/mL, 37° C., 10 h
How it was run: (§1)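 Read-out is absence of bacterial growth, with MIC set at the lowest recombinant protein concentration achieving it. Bacteria, pre-grown in LB to McFarland 0.5 and resuspended, were exposed at 5×10^5 CFU/mL to two-fold diluted human EGF domain proteins in triplicate at 37° C, 175 rpm.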

Pseudomonas aeruginosa = experiment: MIC against Gram-negative bacteria: Pseudomonas aeruginosa; conditions: 96-well plate, 5×10^5 CFU/mL, 37° C., 10 h
How it was run: as §1

Klebsiella pneumonia = experiment: MIC against Gram-negative bacteria: Klebsiella pneumonia; conditions: 96-well plate, 5×10^5 CFU/mL, 37° C., 10 h
How it was run: as §1

Enterobacter cloacae = experiment: MIC against Gram-negative bacteria: Enterobacter cloacae; conditions: 96-well plate, 5×10^5 CFU/mL, 37° C., 10 h
How it was run: as §1

Aeromonas hydrophila = experiment: MIC against Gram-negative bacteria: Aeromonas hydrophila; conditions: 96-well plate, 5×10^5 CFU/mL, 37° C., 10 h
How it was run: as §1

Citrobacter diversus = experiment: MIC against Gram-negative bacteria: Citrobacter diversus; conditions: 96-well plate, 5×10^5 CFU/mL, 37° C., 10 h
How it was run: as §1

Moraxella catarrhalis = experiment: MIC against Gram-negative bacteria: Moraxella catarrhalis; conditions: 96-well plate, 5×10^5 CFU/mL, 37° C., 10 h
How it was run: as §1

Proteus mirabilis = experiment: MIC against Gram-negative bacteria: Proteus mirabilis; conditions: 96-well plate, 5×10^5 CFU/mL, 37° C., 10 h
How it was run: as §1

Proteus vulgaris = experiment: MIC against Gram-negative bacteria: Proteus vulgaris; conditions: 96-well plate, 5×10^5 CFU/mL, 37° C., 10 h
How it was run: as §1

Serratia marcescens = experiment: MIC against Gram-negative bacteria: Serratia marcescens; conditions: 96-well plate, 5×10^5 CFU/mL, 37° C., 10 h
How it was run: as §1

Substance | MIC (E. coli DH5α) [µg/mL] | MIC E. coli BL21 (E. coli BL21) [µg/mL] | MIC P. aeruginosa (Pseudomonas aeruginosa) [µg/mL] | MIC K. pneumonia (Klebsiella pneumonia) [µg/mL] | MIC E. cloacae (Enterobacter cloacae) [µg/mL] | MIC A. hydrophila (Aeromonas hydrophila) [µg/mL] | MIC C. diversus (Citrobacter diversus) [µg/mL] | MIC M. catarrhalis (Moraxella catarrhalis) [µg/mL] | MIC P. mirabilis (Proteus mirabilis) [µg/mL] | MIC P. vulgaris (Proteus vulgaris) [µg/mL] | MIC S. marcescens (Serratia marcescens) [µg/mL]
PRT601 (CDCDIGGAYSNVCSPKNGQCECRPHVTGRSCSEPAPGYFFAPLNFYL; listed as Homo sapiens) | 50 | 25 | 12.5 | 25 | 50 | 25 | 12.5 | 50 | 100 | 50 | 12.5
PRT602 (CKCHPQGSVGSSCSRLGGQCQCKPLVVGRCCDRCSTGSYDLGHHGCHP; listed as Homo sapiens) | 50 | 12.5 | 50 | 12.5 | 50 | 12.5 | 50 | 12.5 | 50 | 25 | 12.5
PRT603 (CHCHPQGSKDTVCDQVTGQCPCHGEVSGRRCDRCLAGYFGFPSCHP; listed as Homo sapiens) | 25 | 50 | 25 | 12.5 | 25 | 50 | 12.5 | 50 | 12.5 | 50 | 12.5
PRT604 (CPCNRFAELCDPETGSCFNCGGFTTGRNCERCIDGYYGNPSSGQPCRP; listed as Homo sapiens) | 50 | 12.5 | 25 | 50 | 25 | 12.5 | 25 | 12.5 | 25 | 12.5 | 25
PRT605 (CLCPDDPSSNQYFAHSCYQNLWSSDVICNCLQGYTGTQCGECSTGFYGNPRISGAPCQP; listed as Homo sapiens) | 12.5 | 25 | 50 | 25 | 12.5 | 25 | 50 | 25 | 12.5 | 25 | 50
PRT607 (CDCHPEGSLSLQCKDDGRCECREGFVGNRCDQCEENYFYNRSWPGCQE; listed as Homo sapiens) | 50 | 25 | 12.5 | 25 | 50 | 12.5 | 50 | 12.5 | 50 | 12.5 | 50
PRT608 (CDCNGRSQECYFDPELYRSTGHGGHCTNCQDNTDGAHCERCRENFFRLGNNEACSS; listed as Homo sapiens) | 12.5 | 50 | 12.5 | 50 | 25 | 12.5 | 25 | 50 | 25 | 12.5 | 25
